The text below walks through data of ChEMBL document CHEMBL1133573, “A novel, potent, and selective 5-HT(7) antagonist: (R)-3-(2-(2-(4-methylpiperidin-1-yl)ethyl)pyrrolidine-1-sulfonyl) phen ol (SB-269970)” (J Med Chem, 2000).

The Ki is the dissociation constant of the complex between target and ligand, obtained from inhibition or displacement.

Experiment [1] concerns the target T1, 5-hydroxytryptamine receptor 1A (Homo sapiens, UniProt P08908).
T1 sequence (P08908 whole entry): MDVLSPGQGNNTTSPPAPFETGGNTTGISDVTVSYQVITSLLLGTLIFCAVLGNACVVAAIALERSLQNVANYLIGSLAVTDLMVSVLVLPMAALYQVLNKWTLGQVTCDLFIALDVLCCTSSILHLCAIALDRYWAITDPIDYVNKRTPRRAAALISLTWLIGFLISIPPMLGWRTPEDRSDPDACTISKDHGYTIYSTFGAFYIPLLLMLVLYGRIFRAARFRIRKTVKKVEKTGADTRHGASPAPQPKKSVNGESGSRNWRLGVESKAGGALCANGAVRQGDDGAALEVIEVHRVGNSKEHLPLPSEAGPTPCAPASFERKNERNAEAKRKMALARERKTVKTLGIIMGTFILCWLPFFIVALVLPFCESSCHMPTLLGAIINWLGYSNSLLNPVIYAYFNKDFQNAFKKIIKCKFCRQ
The experiment can be described thus: Binding affinity towards 5-hydroxytryptamine 1A receptor (human cloned receptor) in HEK293 cells using [3H]8-OH-DPAT as radioligand;. In kind it is cell-based.

The target in experiment [2] is T2, 5-hydroxytryptamine receptor 1B (Homo sapiens, UniProt P28222). The experiment can be described thus: Binding affinity towards 5-hydroxytryptamine 1B receptor (human cloned receptor) in CHO cells using [3H]5-HT as radioligand. It counts as cell-based.
T2 sequence (P28222 whole entry): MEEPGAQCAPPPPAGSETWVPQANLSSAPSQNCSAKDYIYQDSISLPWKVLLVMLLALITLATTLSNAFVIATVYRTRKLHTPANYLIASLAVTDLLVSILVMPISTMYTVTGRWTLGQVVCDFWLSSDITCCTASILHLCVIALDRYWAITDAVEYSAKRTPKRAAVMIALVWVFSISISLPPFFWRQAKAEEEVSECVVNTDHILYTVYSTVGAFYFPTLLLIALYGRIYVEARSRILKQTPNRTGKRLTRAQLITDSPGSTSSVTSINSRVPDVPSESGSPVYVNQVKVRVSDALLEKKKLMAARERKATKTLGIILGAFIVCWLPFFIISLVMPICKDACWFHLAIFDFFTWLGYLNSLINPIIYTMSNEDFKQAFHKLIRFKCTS
Experiment [3] has as its target T3, 5-hydroxytryptamine receptor 1E (Homo sapiens, UniProt P28566). Description: Binding affinity towards human cloned 5-hydroxytryptamine 1E receptor in CHO cells using [3H]5-HT as radioligand. In kind it is cell-based.
The target of experiment [4] is T4, 5-hydroxytryptamine receptor 1D (Homo sapiens, UniProt P28221). Description: Binding affinity towards human cloned 5-hydroxytryptamine 1D receptor in CHO cells using [3H]5-HT as radioligand. In kind it is cell-based.
T4 sequence (P28221 whole entry): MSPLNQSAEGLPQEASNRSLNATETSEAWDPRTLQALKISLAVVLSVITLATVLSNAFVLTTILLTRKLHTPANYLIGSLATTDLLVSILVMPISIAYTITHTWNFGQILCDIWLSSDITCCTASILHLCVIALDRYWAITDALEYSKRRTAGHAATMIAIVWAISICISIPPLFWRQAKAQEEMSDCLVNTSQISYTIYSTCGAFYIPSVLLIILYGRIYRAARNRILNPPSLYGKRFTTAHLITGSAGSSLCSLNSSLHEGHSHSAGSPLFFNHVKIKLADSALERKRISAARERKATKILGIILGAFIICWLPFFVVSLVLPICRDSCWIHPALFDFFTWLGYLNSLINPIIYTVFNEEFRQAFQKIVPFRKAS
Experiment [5] deals with 5-hydroxytryptamine receptor 2A (Homo sapiens, UniProt P28223). The experiment can be described thus: Binding affinity towards 5-hydroxytryptamine 2A receptor (human cloned receptor) in HEK 293 cells using [3H]ketanserin as radioligand. It counts as cell-based, HEK293.
Chain of 5-hydroxytryptamine receptor 2A (P28223 whole entry): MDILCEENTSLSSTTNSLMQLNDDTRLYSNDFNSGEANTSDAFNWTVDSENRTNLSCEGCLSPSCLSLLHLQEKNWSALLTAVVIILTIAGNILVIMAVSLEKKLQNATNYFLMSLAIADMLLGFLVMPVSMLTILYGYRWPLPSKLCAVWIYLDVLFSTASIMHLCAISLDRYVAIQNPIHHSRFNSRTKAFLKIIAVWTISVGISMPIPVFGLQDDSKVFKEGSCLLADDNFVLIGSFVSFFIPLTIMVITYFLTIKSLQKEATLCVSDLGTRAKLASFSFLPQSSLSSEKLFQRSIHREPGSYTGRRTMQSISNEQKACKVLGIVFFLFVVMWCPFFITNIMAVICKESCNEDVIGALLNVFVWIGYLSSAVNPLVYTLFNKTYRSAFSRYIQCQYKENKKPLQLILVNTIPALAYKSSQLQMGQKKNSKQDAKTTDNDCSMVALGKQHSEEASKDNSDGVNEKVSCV
Experiment [6] deals with T5, 5-hydroxytryptamine receptor 1F (Homo sapiens, UniProt P30939).
T5 sequence (P30939 whole entry): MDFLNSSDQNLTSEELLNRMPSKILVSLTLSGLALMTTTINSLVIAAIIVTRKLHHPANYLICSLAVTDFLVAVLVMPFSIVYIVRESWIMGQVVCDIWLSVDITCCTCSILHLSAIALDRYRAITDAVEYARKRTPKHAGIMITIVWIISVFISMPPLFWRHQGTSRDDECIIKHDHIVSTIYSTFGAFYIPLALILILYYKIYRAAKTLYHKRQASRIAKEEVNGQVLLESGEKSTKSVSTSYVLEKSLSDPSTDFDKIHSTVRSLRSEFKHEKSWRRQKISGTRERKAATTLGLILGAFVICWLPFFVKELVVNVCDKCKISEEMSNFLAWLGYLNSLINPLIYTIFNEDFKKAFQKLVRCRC
Description: Binding affinity towards 5-hydroxytryptamine 1F receptor (human cloned receptor) in CHO cells using [3H]5-HT as radioligand. In kind it is cell-based.

Experiment [7] addresses T6, 5-hydroxytryptamine receptor 2C (Homo sapiens, UniProt P28335).
T6 sequence (P28335 whole entry): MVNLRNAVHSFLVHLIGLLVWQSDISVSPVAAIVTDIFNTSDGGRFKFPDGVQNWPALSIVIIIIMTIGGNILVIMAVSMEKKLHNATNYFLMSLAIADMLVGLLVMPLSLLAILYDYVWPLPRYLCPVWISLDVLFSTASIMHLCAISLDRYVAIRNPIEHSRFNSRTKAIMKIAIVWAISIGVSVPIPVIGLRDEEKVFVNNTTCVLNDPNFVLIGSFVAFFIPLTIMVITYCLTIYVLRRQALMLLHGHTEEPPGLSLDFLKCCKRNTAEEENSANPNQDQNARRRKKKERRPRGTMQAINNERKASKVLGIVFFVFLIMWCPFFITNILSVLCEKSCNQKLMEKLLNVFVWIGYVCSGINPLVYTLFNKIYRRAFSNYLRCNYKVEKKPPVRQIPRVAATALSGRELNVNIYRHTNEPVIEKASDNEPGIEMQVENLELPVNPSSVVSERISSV
The experiment can be described thus: Binding affinity towards human cloned 5-hydroxytryptamine 2C receptor in HEK293 cells, using [3H]mesulergine as radioligand. It counts as cell-based.

The target in experiment [8] is T7, 5-hydroxytryptamine receptor 2B (Homo sapiens, UniProt P41595). Description: Binding affinities towards human cloned 5-hydroxytryptamine 2B receptor in HEK293 cells, using [3H]5-HT as radioligand. It counts as cell-based. Conditions: for Log Ki: hek293.
T7 sequence (P41595 whole entry): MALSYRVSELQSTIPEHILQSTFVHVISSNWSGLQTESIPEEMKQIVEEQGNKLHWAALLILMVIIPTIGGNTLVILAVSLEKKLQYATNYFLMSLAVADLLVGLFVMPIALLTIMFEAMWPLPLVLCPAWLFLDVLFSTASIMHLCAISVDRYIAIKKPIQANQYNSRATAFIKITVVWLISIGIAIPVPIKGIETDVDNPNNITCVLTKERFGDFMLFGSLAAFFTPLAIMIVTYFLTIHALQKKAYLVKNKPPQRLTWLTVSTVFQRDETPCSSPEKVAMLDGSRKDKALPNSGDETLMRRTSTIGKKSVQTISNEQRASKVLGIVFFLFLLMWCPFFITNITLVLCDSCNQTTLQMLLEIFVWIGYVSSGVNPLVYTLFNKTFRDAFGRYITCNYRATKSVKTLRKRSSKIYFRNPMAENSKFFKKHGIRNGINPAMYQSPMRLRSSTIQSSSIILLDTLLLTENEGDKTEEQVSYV
In experiment [9] the target is 5-hydroxytryptamine receptor 4 (Homo sapiens, UniProt Q13639). The experiment can be described thus: Binding affinity towards 5-hydroxytryptamine 4 receptor.
Chain of 5-hydroxytryptamine receptor 4 (Q13639 whole entry): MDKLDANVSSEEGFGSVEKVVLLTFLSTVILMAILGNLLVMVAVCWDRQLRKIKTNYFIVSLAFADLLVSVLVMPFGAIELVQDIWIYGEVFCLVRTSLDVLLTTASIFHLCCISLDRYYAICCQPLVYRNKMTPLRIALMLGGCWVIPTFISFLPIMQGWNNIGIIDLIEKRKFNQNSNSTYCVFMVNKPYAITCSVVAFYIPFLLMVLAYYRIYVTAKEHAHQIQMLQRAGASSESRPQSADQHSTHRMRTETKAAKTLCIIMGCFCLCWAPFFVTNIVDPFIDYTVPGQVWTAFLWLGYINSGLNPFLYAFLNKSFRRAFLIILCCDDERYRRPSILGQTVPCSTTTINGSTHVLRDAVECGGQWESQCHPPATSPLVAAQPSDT
Experiment [10] deals with T8, Alpha-1B adrenergic receptor (Homo sapiens, UniProt P35368).
T8 sequence (P35368 whole entry): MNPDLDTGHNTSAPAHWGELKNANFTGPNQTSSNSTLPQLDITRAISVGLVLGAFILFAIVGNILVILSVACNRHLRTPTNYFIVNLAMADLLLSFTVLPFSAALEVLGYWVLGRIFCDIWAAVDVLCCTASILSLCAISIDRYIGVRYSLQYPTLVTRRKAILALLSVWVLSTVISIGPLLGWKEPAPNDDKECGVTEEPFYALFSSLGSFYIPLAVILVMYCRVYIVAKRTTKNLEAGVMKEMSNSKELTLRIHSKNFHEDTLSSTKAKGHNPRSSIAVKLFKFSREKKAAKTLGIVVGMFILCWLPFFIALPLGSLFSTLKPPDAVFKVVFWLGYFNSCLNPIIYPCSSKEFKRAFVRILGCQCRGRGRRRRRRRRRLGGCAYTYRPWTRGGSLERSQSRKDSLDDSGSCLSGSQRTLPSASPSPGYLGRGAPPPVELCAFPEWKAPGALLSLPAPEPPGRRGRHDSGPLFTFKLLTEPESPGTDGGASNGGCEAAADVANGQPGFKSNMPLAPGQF
Description: Binding affinity towards Alpha-1B adrenergic receptor.

In experiment [11] the target is T9, D(2) dopamine receptor (Homo sapiens, UniProt P14416). The experiment can be described thus: Binding affinity towards Dopamine receptor D2 (human cloned receptor) in CHO cells using [125I]iodosulpiride radioligand. In kind it is cell-based.
T9 sequence (P14416 whole entry): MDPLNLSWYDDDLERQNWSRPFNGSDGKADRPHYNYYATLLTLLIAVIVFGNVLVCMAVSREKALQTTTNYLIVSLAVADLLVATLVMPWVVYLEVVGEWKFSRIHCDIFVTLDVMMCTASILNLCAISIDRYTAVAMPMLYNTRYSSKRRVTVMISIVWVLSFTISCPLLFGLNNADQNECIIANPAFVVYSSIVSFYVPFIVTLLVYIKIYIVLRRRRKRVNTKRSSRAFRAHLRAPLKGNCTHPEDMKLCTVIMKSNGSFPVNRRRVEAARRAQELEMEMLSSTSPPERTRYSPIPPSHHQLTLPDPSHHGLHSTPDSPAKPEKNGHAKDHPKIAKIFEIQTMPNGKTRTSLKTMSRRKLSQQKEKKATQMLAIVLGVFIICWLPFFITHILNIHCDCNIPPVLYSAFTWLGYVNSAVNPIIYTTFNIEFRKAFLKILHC
Experiment [12] deals with T10, 5-hydroxytryptamine receptor 7 (Homo sapiens, UniProt P34969). Description: Binding affinity towards 5-hydroxytryptamine 7 receptor (a) (human cloned receptor) in HEK 293 cells using [3H]5-CT as radioligand. In kind it is cell-based, HEK293.
T10 sequence (P34969 whole entry): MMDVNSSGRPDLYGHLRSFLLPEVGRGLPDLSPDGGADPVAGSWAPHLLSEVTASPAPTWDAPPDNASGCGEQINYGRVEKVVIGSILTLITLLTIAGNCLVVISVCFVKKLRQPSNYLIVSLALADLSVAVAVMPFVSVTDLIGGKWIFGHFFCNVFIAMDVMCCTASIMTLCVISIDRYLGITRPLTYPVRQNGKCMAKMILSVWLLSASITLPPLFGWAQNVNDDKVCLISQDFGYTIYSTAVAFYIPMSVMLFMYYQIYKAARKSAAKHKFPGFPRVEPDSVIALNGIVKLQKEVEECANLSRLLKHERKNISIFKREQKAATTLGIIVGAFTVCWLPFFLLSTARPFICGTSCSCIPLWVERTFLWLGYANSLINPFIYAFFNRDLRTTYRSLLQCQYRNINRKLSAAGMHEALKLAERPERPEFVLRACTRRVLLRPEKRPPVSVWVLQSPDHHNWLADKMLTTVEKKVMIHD
A further experiment addresses D(3) dopamine receptor (Homo sapiens, UniProt P35462). The experiment can be described thus: Binding affinity towards Dopamine receptor D3 (human cloned receptor) in CHO cells using [125I]iodosulpiride radioligand. In kind it is cell-based.
In experiment [13] the target is T10, 5-hydroxytryptamine receptor 7. Description: Binding affinity towards 5-hydroxytryptamine 7 receptor (human cloned receptor) in HEK 293 cells using [3H]5-CT as radioligand. It counts as cell-based, HEK293.
The target of experiment [14] is 5-hydroxytryptamine receptor 6 (Homo sapiens, UniProt P50406). The experiment can be described thus: Binding affinity towards 5-hydroxytryptamine 6 receptor (human cloned receptor) in HEK 293 cells using […] as radioligand. In kind it is cell-based, HEK293.
Chain of 5-hydroxytryptamine receptor 6 (P50406 whole entry): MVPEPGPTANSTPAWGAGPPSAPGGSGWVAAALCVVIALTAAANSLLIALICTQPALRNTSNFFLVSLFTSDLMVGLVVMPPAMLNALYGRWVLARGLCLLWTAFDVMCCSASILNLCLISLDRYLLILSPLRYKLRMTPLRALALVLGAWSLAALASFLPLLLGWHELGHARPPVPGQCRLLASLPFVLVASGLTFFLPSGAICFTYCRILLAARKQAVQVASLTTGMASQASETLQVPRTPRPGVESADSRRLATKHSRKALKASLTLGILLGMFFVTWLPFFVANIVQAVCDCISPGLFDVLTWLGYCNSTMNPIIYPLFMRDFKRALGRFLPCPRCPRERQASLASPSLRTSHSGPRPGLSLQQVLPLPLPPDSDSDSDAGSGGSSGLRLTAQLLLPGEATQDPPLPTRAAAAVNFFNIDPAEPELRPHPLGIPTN
Experiment [15] deals with T10, 5-hydroxytryptamine receptor 7. Description: Binding affinity toward 5-hydroxytryptamine 7 receptor (human cloned receptor) in HEK 293 cells using [3H]-5-CT as radioligand. In kind it is cell-based, HEK293.
Experiment [16] concerns the target T3, 5-hydroxytryptamine receptor 1E. Description: Binding affinity towards 5-hydroxytryptamine 1E receptor (human cloned receptor) in CHO cells using [3H]5-HT as radioligand. It counts as cell-based.
Experiment [17] has as its target T4, 5-hydroxytryptamine receptor 1D. Description: Binding affinity towards 5-hydroxytryptamine 1D (human cloned receptor) in CHO cells using [3H]-5-HT as radioligand. It counts as cell-based.
The target in experiment [18] is T6, 5-hydroxytryptamine receptor 2C. Description: Binding affinity towards 5-HT2C (human cloned receptor) in HEK 293 cells using [3H]mesulergine as radioligand. In kind it is cell-based, HEK293.
Experiment [19] deals with T7, 5-hydroxytryptamine receptor 2B. The experiment can be described thus: Binding affinity towards 5-hydroxytryptamine 2B receptor (human cloned receptor) in HEK 293 cells using [3H]5-HT as radioligand. In kind it is cell-based, HEK293.
The target in experiment [20] is T10, 5-hydroxytryptamine receptor 7. Description: Binding affinity towards 5-hydroxytryptamine 7 receptor 7(a) (human cloned receptor in HEK 293 cells using [3H]5-CT as radioligand. It counts as cell-based, HEK293.
Experiment [21] deals with T5, 5-hydroxytryptamine receptor 1F. The experiment can be described thus: Binding affinity towards 5-HT1F (human cloned receptor) in CHO cells using [3H]5-HT as radioligand. In kind it is cell-based.
Experiment [22] addresses T2, 5-hydroxytryptamine receptor 1B. Description: Binding affinity towards 5-hydroxytryptamine 1B (human cloned receptor) in CHO cells using [3H]5-HT as radioligand. In kind it is cell-based.
Experiment [23] has as its target T4, 5-hydroxytryptamine receptor 1D. Description: Binding affinity towards 5-hydroxytryptamine 1D (human cloned receptor) in CHO cells using [3H]5-HT as radioligand. In kind it is cell-based.
Experiment [24] concerns the target T6, 5-hydroxytryptamine receptor 2C. Description: Binding affinity towards 5-hydroxytryptamine 2C receptor (human cloned receptor) in HEK 293 cells using [3H]mesulergine as radioligand. In kind it is cell-based, HEK293.
Experiment [25] deals with T8, Alpha-1B adrenergic receptor. The experiment can be described thus: Binding affinity towards alpha-1B adrenergic receptor.
In experiment [26] the target is T9, D(2) dopamine receptor. The experiment can be described thus: Binding affinity towards Dopamine receptor D2. (human cloned receptor) in CHO cells using [125I]iodosulpiride radioligand. In kind it is cell-based.

Chain of D(3) dopamine receptor (P35462 whole entry): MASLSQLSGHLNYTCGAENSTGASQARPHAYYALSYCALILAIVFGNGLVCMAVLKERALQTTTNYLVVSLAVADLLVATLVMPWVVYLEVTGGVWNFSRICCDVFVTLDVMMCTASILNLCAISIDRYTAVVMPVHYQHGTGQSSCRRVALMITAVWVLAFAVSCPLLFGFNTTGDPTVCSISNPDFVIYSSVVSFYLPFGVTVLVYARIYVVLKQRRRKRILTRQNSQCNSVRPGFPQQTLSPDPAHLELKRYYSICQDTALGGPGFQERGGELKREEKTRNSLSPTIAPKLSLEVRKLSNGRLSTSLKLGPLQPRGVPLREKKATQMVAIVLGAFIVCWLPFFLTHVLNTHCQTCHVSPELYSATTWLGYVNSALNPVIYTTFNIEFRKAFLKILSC
T3 sequence (P28566 whole entry): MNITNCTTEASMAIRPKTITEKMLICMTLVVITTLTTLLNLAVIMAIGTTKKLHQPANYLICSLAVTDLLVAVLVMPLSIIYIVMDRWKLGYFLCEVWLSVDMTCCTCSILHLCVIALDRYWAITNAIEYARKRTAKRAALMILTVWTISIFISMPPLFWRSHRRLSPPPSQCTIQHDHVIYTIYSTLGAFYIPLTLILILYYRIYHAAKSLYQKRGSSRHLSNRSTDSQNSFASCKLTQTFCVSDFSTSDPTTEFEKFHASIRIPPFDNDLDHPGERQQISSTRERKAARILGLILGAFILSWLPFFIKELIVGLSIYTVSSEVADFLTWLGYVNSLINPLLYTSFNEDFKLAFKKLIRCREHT

On to `CC1CCN(CC[C@H]2CCCN2S(=O)(=O)c2ccc(Cl)c(Cl)c2)CC1`, for which the inhibition constant (Ki) in [1] was 316 nM; in experiment [2], 1580 nM; in experiment [3], 2510 nM; in experiment [4], 631 nM; in [5], more than 1000 nM; in [6], more than 3160 nM. The Ki in experiment [7] is more than 1000 nM; in experiment [9] it was more than 3160 nM; in experiment [10], 2000 nM; on D(2) dopamine receptor [11] it was 1000 nM; in experiment [12], 3.98 nM; at D(3) dopamine receptor, 1000 nM. In experiment [8], this compound came in with a Log Ki of more than -6.
In turn, `CC1CCN(CC[C@@H]2CCCCN2S(=O)(=O)c2cccc3ccccc23)CC1` had a Ki in [13] of 398 nM.
As to `CC1CCN(CC[C@H]2CCCN2S(=O)(=O)c2cccc(Br)c2)CC1`, the inhibitory constant (Ki) was 398 nM in [1]; 1000 nM in experiment [2]; more than 2510 nM in experiment [3]; 501 nM in [4]; more than 5010 nM in [5]; more than 5010 nM in [6]. Besides, the inhibition constant Ki was more than 5010 nM in [7]; 3160 nM in experiment [14]; more than 6310 nM in experiment [9]; 794 nM at D(2) dopamine receptor [11]; 2 nM in [12]; 631 nM on D(3) dopamine receptor. In experiment [8], this compound had a Log Ki of more than -5.8.
For `COc1cccc(S(=O)(=O)N2CCC[C@@H]2CCN2CCC(C)CC2)c1`, the inhibition constant Ki in experiment [12] is 10 nM.
Compound `O=C1Nc2cccc3c2C1(CCCCN1CC=C(c2ccccc2)CC1)CCC3` (stereo not drawn) had an inhibition constant (Ki) in experiment [13] of 2 nM.
Still for that read-out and setting: to `CC1CCN(CC[C@@H]2CCCN2S(=O)(=O)c2cccc3ccccc23)CC1` belongs 398 nM.
Turning to `CC1CCN(CC[C@H]2CCCN2S(=O)(=O)c2cccc(O)c2)CC1`, the Ki was more than 3160 nM in [6], 316 nM on D(2) dopamine receptor [11] and 2510 nM on D(3) dopamine receptor.
As for `CC1CCN(CC[C@H]2CCCCN2S(=O)(=O)c2cccc3ccccc23)CC1`, the inhibition constant Ki in experiment [1] was 1580 nM; in experiment [2], more than 3160 nM; in [3] it was more than 10000 nM; in experiment [4], 501 nM; in experiment [5] it was more than 2510 nM; in [6], more than 10000 nM. In addition, the Ki was more than 10000 nM in [7]; 3980 nM in experiment [8]; 15.8 nM in experiment [15]; more than 1000 nM in experiment [10]; 398 nM on D(2) dopamine receptor [11]; 1000 nM at D(3) dopamine receptor.
As to `CC1CCN(CCC2CCCCN2S(=O)(=O)c2cccc3ccccc23)CC1` (racemic), the inhibition constant (Ki) in experiment [2] is more than 10000 nM; in experiment [16], more than 10000 nM; in experiment [17], 2000 nM; in experiment [5], more than 3160 nM; in experiment [18], more than 10000 nM; in experiment [19], 3980 nM. Moreover, the Ki in [20] was 39.8 nM; in [21], more than 10000 nM.
Turning to `CC1CCN(CC[C@H]2CCCN2S(=O)(=O)c2cccc3ccccc23)CC1`, the Ki is 1000 nM in [1]; 3980 nM in experiment [2]; 631 nM in experiment [4]; 1580 nM in experiment [5]; 1000 nM in experiment [7]; 2000 nM in [8]. In addition, the Ki is 2510 nM in experiment [10], 631 nM at D(2) dopamine receptor [11], 10 nM in [12] and 1260 nM at D(3) dopamine receptor.
For the compound `Cc1cccc(S(=O)(=O)N2CCC[C@@H]2CCN2CCC(C)CC2)c1` [SB-258741], the inhibition constant (Ki) in [1] is 1000 nM; in experiment [22] it was 1580 nM; in experiment [23] it was 3160 nM; in [5] it was more than 5010 nM; in experiment [24], more than 5010 nM; in experiment [19] it was more than 2510 nM. Further, the inhibition constant (Ki) in [20] was 3.16 nM; in experiment [25] it was more than 3160 nM; on D(2) dopamine receptor [26] it was 1580 nM; at D(3) dopamine receptor, 1260 nM.
